Test results reported in ChEMBL document CHEMBL4000191, “Antileishmanial evaluation of clubbed bis(indolyl)-pyridine derivatives: One-pot synthesis, in vitro biological evaluations and in silico ADME prediction” (Bioorg Med Chem Lett, 2017).
≈ marks a conversion by molar mass, not a printed value.

Columns and labels:
Bacillus subtilis = assay: Antibacterial activity against Bacillus subtilis NCIM 2063 by standard agar method; format: functional
Escherichia coli = assay: Antibacterial activity against Escherichia coli NCIM 2256 by standard agar method; format: functional
Staphylococcus aureus = assay: Antibacterial activity against Staphylococcus aureus NCIM 2901 by standard agar method; format: functional
Leishmania donovani [1] = assay: Antileishmanial activity against Leishmania donovani NHOM/IN/80/DD8 promastigotes after 72 hrs by MTT assay; format: functional; details: NHOM/IN/80/DD8, 72 h
Pseudomonas aeruginosa = assay: Antibacterial activity against Pseudomonas aeruginosa NCIM 2036 by standard agar method; format: functional
Leishmania donovani [2] = assay: Antileishmanial activity against Leishmania donovani; format: functional
HeLa = assay: Cytotoxic activity against human HeLa cells up to 300 ug/mL after 72 hrs by MTT assay; format: cell-based
Leishmania chagasi = assay: Antileishmanial activity against Leishmania donovani chagasi MHOM/BR/74/PP75 promastigotes after 72 hrs by phase contrast microscopic method; format: functional; details: MHOM/BR/74/PP75, 72 h

COc1cc(-c2cc(-c3c[nH]c4ccccc34)nc(-c3c[nH]c4ccccc34)c2)cc(OC)c1OC
MIC (Bacillus subtilis): 79.9 µg/mL (≈ 168 µM) | MIC (Escherichia coli): 192 µg/mL (≈ 403 µM) | MIC (Staphylococcus aureus): 179 µg/mL (≈ 377 µM) | IC50 (Leishmania donovani [1]): 136 µM | MIC (Pseudomonas aeruginosa): 197 µg/mL (≈ 414 µM)

C[n+]1c2ccccc2cc2[n-]c3ccccc3c21 [CRYPTOLEPINE]
IC50 (Leishmania donovani [2]): 1.6 µM

COc1ccc(OC)c(-c2cc(-c3c[nH]c4ccccc34)nc(-c3c[nH]c4ccccc34)c2)c1
MIC (Bacillus subtilis): 79.5 µg/mL (≈ 178 µM) | MIC (Escherichia coli): 133 µg/mL (≈ 299 µM) | MIC (Staphylococcus aureus): 158 µg/mL (≈ 356 µM) | IC50 (Leishmania donovani [1]): 260 µM | MIC (Pseudomonas aeruginosa): 182 µg/mL (≈ 408 µM)

Oc1ccc(-c2cc(-c3c[nH]c4ccccc34)nc(-c3c[nH]c4ccccc34)c2)cc1O
MIC (Bacillus subtilis): 121 µg/mL (≈ 291 µM) | MIC (Escherichia coli): 158 µg/mL (≈ 379 µM) | MIC (Staphylococcus aureus): 191 µg/mL (≈ 458 µM) | IC50 (Leishmania donovani [1]): 287 µM | MIC (Pseudomonas aeruginosa): 224 µg/mL (≈ 535 µM)

CC1(C)S[C@@H]2[C@H](NC(=O)[C@H](N)c3ccccc3)C(=O)N2[C@H]1C(=O)O [AMPICILLIN]
MIC (Bacillus subtilis): 250 µg/mL (≈ 715 µM) | MIC (Escherichia coli): 100 µg/mL (≈ 286 µM) | MIC (Staphylococcus aureus): 250 µg/mL (≈ 715 µM) | MIC (Pseudomonas aeruginosa): 100 µg/mL (≈ 286 µM)

O=C(O)c1cn(C2CC2)c2cc(N3CCNCC3)c(F)cc2c1=O [CIPROFLOXACIN]
MIC (Escherichia coli): 25 µg/mL (≈ 75.4 µM) | MIC (Pseudomonas aeruginosa): 50 µg/mL (≈ 151 µM)

COc1ccc(-c2cc(-c3c[nH]c4ccccc34)nc(-c3c[nH]c4ccccc34)c2)c(OC)c1
MIC (Bacillus subtilis): 88.7 µg/mL (≈ 199 µM) | MIC (Escherichia coli): 52.2 µg/mL (≈ 117 µM) | MIC (Staphylococcus aureus): 123 µg/mL (≈ 276 µM) | IC50 (Leishmania donovani [1]): 600 µM | MIC (Pseudomonas aeruginosa): 188 µg/mL (≈ 423 µM)

c1ccc(-c2cc(-c3c[nH]c4ccccc34)nc(-c3c[nH]c4ccccc34)c2)cc1
MIC (Bacillus subtilis): 89.6 µg/mL (≈ 232 µM) | MIC (Escherichia coli): 55.4 µg/mL (≈ 144 µM) | MIC (Staphylococcus aureus): 158 µg/mL (≈ 410 µM) | IC50 (Leishmania donovani [1]): 142 µM | MIC (Pseudomonas aeruginosa): 149 µg/mL (≈ 387 µM)

O=C(O)c1ccccc1-c1cc(-c2c[nH]c3ccccc23)nc(-c2c[nH]c3ccccc23)c1
MIC (Bacillus subtilis): 70.4 µg/mL (≈ 164 µM) | MIC (Escherichia coli): 71.5 µg/mL (≈ 166 µM) | MIC (Staphylococcus aureus): 129 µg/mL (≈ 300 µM) | IC50 (Leishmania donovani [1]): 118 µM | MIC (Pseudomonas aeruginosa): 122 µg/mL (≈ 284 µM)

Clc1ccccc1-c1cc(-c2c[nH]c3ccccc23)nc(-c2c[nH]c3ccccc23)c1
MIC (Bacillus subtilis): 64.8 µg/mL (≈ 154 µM) | MIC (Escherichia coli): 41.4 µg/mL (≈ 98.5 µM) | MIC (Staphylococcus aureus): 166 µg/mL (≈ 394 µM) | IC50 (Leishmania donovani [1]): 123 µM | MIC (Pseudomonas aeruginosa): 150 µg/mL (≈ 358 µM) | Activity (HeLa): Non-Toxic

COc1ccc(-c2cc(-c3c[nH]c4ccccc34)nc(-c3c[nH]c4ccccc34)c2)cc1OC
MIC (Bacillus subtilis): 55.4 µg/mL (≈ 124 µM) | MIC (Escherichia coli): 191 µg/mL (≈ 428 µM) | MIC (Staphylococcus aureus): 194 µg/mL (≈ 436 µM) | IC50 (Leishmania donovani [1]): 192 µM | MIC (Pseudomonas aeruginosa): 180 µg/mL (≈ 404 µM)

COC(=O)[C@@H]1C[C@@]23CCCN4CC[C@@]5(c6ccccc6N(C(=O)OC)[C@]15CC2)[C@H]43
IC50 (Leishmania chagasi): 60.9 µM

COc1cc(-c2cc(-c3c[nH]c4ccccc34)nc(-c3c[nH]c4ccccc34)c2)ccc1O
MIC (Bacillus subtilis): 95.7 µg/mL (≈ 222 µM) | MIC (Escherichia coli): 129 µg/mL (≈ 300 µM) | MIC (Staphylococcus aureus): 221 µg/mL (≈ 511 µM) | IC50 (Leishmania donovani [1]): 169 µM | MIC (Pseudomonas aeruginosa): 165 µg/mL (≈ 383 µM)

Clc1ccc(-c2cc(-c3c[nH]c4ccccc34)nc(-c3c[nH]c4ccccc34)c2)cc1
MIC (Bacillus subtilis): 77.2 µg/mL (≈ 184 µM) | MIC (Escherichia coli): 90.5 µg/mL (≈ 216 µM) | MIC (Staphylococcus aureus): 183 µg/mL (≈ 435 µM) | IC50 (Leishmania donovani [1]): 166 µM | MIC (Pseudomonas aeruginosa): 115 µg/mL (≈ 275 µM)

COc1ccc(-c2cc(-c3c[nH]c4ccccc34)nc(-c3c[nH]c4ccccc34)c2)cc1
MIC (Bacillus subtilis): 81.5 µg/mL (≈ 196 µM) | MIC (Escherichia coli): 46.6 µg/mL (≈ 112 µM) | MIC (Staphylococcus aureus): 165 µg/mL (≈ 398 µM) | IC50 (Leishmania donovani [1]): 99.5 µM | MIC (Pseudomonas aeruginosa): 120 µg/mL (≈ 288 µM) | Activity (HeLa): Non-Toxic

Clc1cccc(Cl)c1-c1cc(-c2c[nH]c3ccccc23)nc(-c2c[nH]c3ccccc23)c1
MIC (Bacillus subtilis): 96.5 µg/mL (≈ 212 µM) | MIC (Escherichia coli): 87.5 µg/mL (≈ 193 µM) | MIC (Staphylococcus aureus): 178 µg/mL (≈ 391 µM) | IC50 (Leishmania donovani [1]): 102 µM | MIC (Pseudomonas aeruginosa): 175 µg/mL (≈ 386 µM)

CN(C)c1ccc(-c2cc(-c3c[nH]c4ccccc34)nc(-c3c[nH]c4ccccc34)c2)cc1
MIC (Bacillus subtilis): 103 µg/mL (≈ 240 µM) | MIC (Escherichia coli): 95.9 µg/mL (≈ 224 µM) | MIC (Staphylococcus aureus): 229 µg/mL (≈ 534 µM) | IC50 (Leishmania donovani [1]): 112 µM | MIC (Pseudomonas aeruginosa): 149 µg/mL (≈ 349 µM)
